Measurements: patent US12172975B2, “1H-indazole carboxamides as receptor-interacting protein kinase 1 inhibitors (RIPK1)” (BRISTOL-MYERS SQUIBB COMPANY, priority 2018, dated 2024)
pIC50: −log10 of the molar value.

Test system: MLKL phosphorylation in HT29-L23 human colorectal adenocarcinoma cells
Assay: MLKL Phosphorylation High-Content Assay
Assay type: cell-based
Conditions: Homo sapiens, 6 h, necroptosis induced with TNFα, SMAC mimetic and Z-VAD, read-out: pMLKL (IC50)
Method: MLKL Phosphorylation High-Content Assay
HT29-L23 human colorectal adenocarcinoma cells were maintained in RPMI 1640 medium containing 10% heat-inactivated FBS, 1% Penicillin-Streptomycin and 10 mM HEPES. Cells were seeded at 2,000 cells/well in 384 well tissue culture-treated microplates (Greiner #781090-3B) and incubated at 37° C. (5% CO2/95% O2) for 2 d. […] (5% CO2/95% O2). Necroptopsis was induced using a mixture of human TNFα (35 ng/mL) (Peprotech #300-01A), SMAC mimetic (from US 2015/0322111 A1) (700 nM) and Z-VAD ([…]) (BD pharmingen #51-6936). Following 6 h incubation at 37° C. (5% CO2/95% O2), the cells were fixed with 4% formaldehyde (ACROS 11969-0010) for 15 min at rt, then permeabilized with phosphate buffered saline (PBS) containing 0.2% Triton-X-100 for 10 min. MLKL phosphorylation was detected using anti-MLKL (phospho S358) antibody (Abeam #ab 187091) (1:1000 dilution in Blocking Buffer [PBS supplemented with 0.1% BSA]) with ON incubation at 4° C. After washing three times in PBS, goat anti-rabbit Alexa-488 (1:1000 dilution) (Life Technologies, A11008) and Hoechst 33342 (Life Technologies, H3570) (1:2000 dilution) in Blocking Buffer were added for 1 h at rt.
Following another three cycles of washes in PBS, the microplates were sealed, and cellular images were acquired in the Cellomics ArrayScan VTI high-content imager equipped with an X1 camera. Fluorescent images were taken using a 10× objective and the 386-23 BGRFRN_BGRFRN and 485-20 BGRFRN_BGRFRN filter sets, for nuclei and MLKL phosphorylation, respectively. The image sets were analyzed using the Compartmental Analysis Bioapplication software (Cellomics). The level of MLKL phosphorylation was quantified as MEAN_CircRingAvglntenRatio. The maximal inhibitory response was defined by the activity induced by Neels (CAS #: 852391-15-2, 6.25 μM). […] The data were fitted using the 4-parameter logistic equation to calculate the IC50 and Ymax values.

SMILES | pIC50
CNC(=O)c1n[nH]c2cc(-c3cnc(OC)c(C(=O)NCCS(=O)(=O)Nc4ccccc4)c3)ccc12 [Example 47, 6-(6-methoxy-5-{[2-(phenyl-sulfamoyl)ethyl]carbamoyl}-pyridin-3-yl)-N-methyl-1H-indazole-3-carboxamide] | 7.42
CNC(=O)c1n[nH]c2cc(-c3cnc(OC)c(C(=O)NCCC(O)c4ccc(F)cc4)c3)ccc12 (stereo not drawn) [Example 40, 6-(5-{[3-(4-fluorophenyl)-3-hydroxypropyl]carbamoyl}-6-methoxypyridin-3-yl)-N-methyl-1H-indazole-3-carboxamide] | 8.24
CNC(=O)c1n[nH]c2cc(-c3cnc(OC)c(C(=O)N[C@@H](C)CC(=O)OC(C)(C)C)c3)ccc12 [Example 139, tert-butyl (3S)-3-({2-methoxy-5-[3-(methylcarbamoyl)-1H-indazol-6-yl]pyridin-3-yl}-formamido)butanoate] | 7.55
CCc1ccccc1CNC(=O)c1cc(-c2ccc3c(C(=O)NC)n[nH]c3c2)cnc1OC [Example 82, 6-(5-{[(2-ethylphenyl)methyl]-carbamoyl}-6-methoxy-pyridin-3-yl)-N-methyl-1H-indazole-3-carboxamide] | 7.39
CNC(=O)c1n[nH]c2cc(-c3cnc(OC)c(C(=O)NCC4CC4c4cccc(F)c4)c3)ccc12 (stereo not drawn) [Example 42, 6-[5-({[2-(3-fluorophenyl)cyclo-propyl]methyl}carbamoyl)-6-methoxypyridin-3-yl]-N-methyl-1H-indazole-3-carboxamide] | 7.06
[2H]C([2H])([2H])Oc1ncc(-c2ccc3c(C(=O)NC4CC4)n[nH]c3c2)cc1C(=O)N[C@@H](C)c1cccc(C(F)(F)F)c1 [Example 211, N-cyclopropyl-6-[6-(deutero)-methoxy-5-{[(1S)-1-[3-(trifluoro-methyl)phenyl]ethyl]carbamoyl}-pyridin-3-yl]-1H-indazole-3-carboxamide] | 7.57
CNC(=O)c1n[nH]c2cc(-c3cnc(OC)c(C(=O)NCCCOC(C)(C)C)c3)ccc12 [Example 60, 6-(5-{[3-(tert-butoxy)propyl]-carbamoyl}-6-methoxypyridin-3-yl)-N-methyl-1H-indazole-3-carboxamide] | 7.80
CNC(=O)c1n[nH]c2cc(-c3cnc(OC)c(C(=O)NCCC(O)c4ccc(OC)cc4)c3)ccc12 (stereo not drawn) [Example 38, 6-(5-{[3-hydroxy-3-(4-methoxy-phenyl)propyl]carbamoyl}-6-methoxypyridin-3-yl)-N-methyl-1H-indazole-3-carboxamide] | 7.89
CNC(=O)c1n[nH]c2cc(-c3cnc(OC)c(C(=O)N[C@H]4C[C@@H]4c4ccccc4)c3)ccc12 [Example 46, 6-(6-methoxy-5-{[(1S,2R)-2-phenylcyclopropyl]carbamoyl}-pyridin-3-yl)-N-methyl-1H-indazole-3-carboxamide] | 8.36
CNC(=O)c1n[nH]c2cc(-c3cnc(OC)c(C(=O)NCCC(C)c4ccc(F)cc4)c3)ccc12 (stereo not drawn) [Example 41, 6-(5-{[3-(4-fluorophenyl)-butyl]carbamoyl}-6-methoxy-pyridin-3-yl)-N-methyl-1H-indazole-3-carboxamide] | 9.22
[2H]C([2H])([2H])Oc1ncc(-c2ccc3c(C(=O)NC)n[nH]c3c2)cc1C(=O)N[C@H](C)c1ccccc1C(F)(F)F [Example 33, 6-[6-(deutero)methoxy-5-{[(1R)-1-[2-(trifluoromethyl)phenyl]-ethyl]carbamoyl}pyridin-3-yl]-N-methyl-1H-indazole-3-carbox-amide] | 7.60
CNC(=O)c1n[nH]c2cc(-c3cnc(OC)c(C(=O)NCc4ccccc4N4CCC(CO)CC4)c3)ccc12 [Example 57, 6-{5-[({2-[4-(hydroxymethyl)-piperidin-1-yl]phenyl}methyl)-carbamoyl]-6-methoxypyridin-3-yl}-N-methyl-1H-indazole-3-carboxamide] | 6.96
